Assay results published in patent US20100041089A1, “IMPROVED METHOD FOR DETECTING CHEMICAL […]” (priority 2006, published 2010).

System: yeast genes (expressed mRNA)
Test: DNA chip measurement of expressed mRNA of yeast genes after culture with a toxic chemical substance
Format: cell-based, Saccharomyces cerevisiae S288C
Details: for level of expressed mRNA in the presence of chemical substance / level in the absence of chemical substance: cultured two hours with the chemical substance; for The level of expressed mRNA in the presence of chemical substance/The level of expressed mRNA in the absence of chemical substance: cultured two hours with substance
Experimental: Yeast (Saccharomyces cerevisiae S288C (a SUC2mal mel gap2 CUP1)) were cultured at 25° C. on YPD medium (yeast extract 1%, polypeptone 2%, glucose 2%). One of toxic chemical substances was added to the cell at logarithmic growth phase, and the cell was further cultured for two hours. Cell was cultured without any chemical substance in the same condition, and was used as a control. Concentrations of the chemical substances were defined to inhibit the growth of the yeast but not lead to death.
After the completion of cultivation, the culture was centrifuged to collect the cells. To the cells, sodium acetate buffer (50 mM sodium acetate, 10 mM EDTA, 1% SDS) was added, and the mixture was shaken at 65° C. for five minutes, followed by returning to room temperature, and obtaining the supernatant, which procedure was repeated two times. To the supernatant, ½ amount of a solution of phenol/chloroform (1:1) was added, and the mixture was centrifuged to give a supernatant, an equal amount of chloroform was added, and the mixture was centrifuged to give a supernatant. To the supernatant, an equal amount of isopropanol containing 0.3 M sodium acetate was added, and the mixture was allowed to stand at room temperature for 30 minutes, after which the mixture was centrifuged to give sediment of the whole RNAs. Seventy % ethanol was added to the sediment, and the mixture was again centrifuged to give sediment, which was then dried and dissolved in water. mRNA was isolated from the whole RNAs as followings. In view of the fact that a poly A chain is attached to the 3′ terminus of mRNA, a polynucleotide having a poly T structure which was immobilized on the surface of latex beads was used to trap the mRNA, and then the mRNA was washed and eluted with spine column (Oligotex-dT30<Super>mRNA Purification Kit, Takara). Reverse transcription of the mRNA was conducted with a reverse transcriptase (Super Script II Reverse Transcriptase; catalogue No. 18064-014, GibcoBRL) using fluorescence-labeled nucleotides to give cDNAs that were introduced with Cy3-dUTP or Cy5-dUTP during the reverse transcription.
The labeled cDNAs were dissolved in TE buffer (10 mM Tris-HCl/1 mM EDTA, pH 8.0), and the solution was dropped on the DNA chip containing the whole genes of yeast (DNA Chip Research Inc. Japan) so that the cDNAs were hybridized on the DNA chip at 65° C. for over 12 hours. The fluoresces intensity of the DNA chip was read with a scanner, and the ratio relative to the fluorescence intensity resulting from the absence of chemical substance was estimated as the following, which is shown in Tables 1 to 9.
In the Tables, “Intensity” indicated in the rightmost column is a value of the level of expressed mRNA of each gene in control cells as divided by the average level of the expressions of the whole genes. A gene of which mRNA level is lower in control, and is higher in cases of addition of chemical substance, is especially useful in the detection of toxic substances.
Here, when a ratio of an amount of mRNA expressed in the presence of the chemical substance to an amount of mRNA expressed in the absence of the chemical substance is two or more, then it is considered significant.

CCCCCCCCCCCCc1ccc(S(=O)(=O)[O-])cc1.[Na+] [(17), Sodium dodecylbenzosulfonate]
0.6: level of expressed mRNA in the presence of chemical substance / level in the absence of chemical substance (yeast gene YNL176C)
1.8: The level of expressed mRNA in the presence of chemical substance/The level of expressed mRNA in the absence of chemical substance (yeast gene YNL156C)
1.7: The level of expressed mRNA in the presence of chemical substance/The level of expressed mRNA in the absence of chemical substance (yeast gene YNL092W) | The level of expressed mRNA in the presence of chemical substance/The level of expressed mRNA in the absence of chemical substance (yeast gene YNL305C) | The level of expressed mRNA in the presence of chemical substance/The level of expressed mRNA in the absence of chemical substance (yeast gene YOL032W) | The level of expressed mRNA in the presence of chemical substance/The level of expressed mRNA in the absence of chemical substance (yeast gene YOR019W)
0.9: level of expressed mRNA in the presence of chemical substance / level in the absence of chemical substance (yeast gene YNL063W) | The level of expressed mRNA in the presence of chemical substance/The level of expressed mRNA in the absence of chemical substance (yeast gene YNL281W) | level of expressed mRNA in the presence of chemical substance / level in the absence of chemical substance (yeast gene YOR253W) | level of expressed mRNA in the presence of chemical substance / level in the absence of chemical substance (yeast gene YPR148C)
1.0: The level of expressed mRNA in the presence of chemical substance/The level of expressed mRNA in the absence of chemical substance (yeast gene YNL234W) | The level of expressed mRNA in the presence of chemical substance/The level of expressed mRNA in the absence of chemical substance (yeast gene YNR068C) | level of expressed mRNA in the presence of chemical substance / level in the absence of chemical substance (yeast gene YPL180W) | level of expressed mRNA in the presence of chemical substance / level in the absence of chemical substance (yeast gene YPL225W) | The level of expressed mRNA in the presence of chemical substance/The level of expressed mRNA in the absence of chemical substance (yeast gene YPR023C) | level of expressed mRNA in the presence of chemical substance / level in the absence of chemical substance (yeast gene YPR049C) | level of expressed mRNA in the presence of chemical substance / level in the absence of chemical substance (yeast gene YPR146C)
0.7: level of expressed mRNA in the presence of chemical substance / level in the absence of chemical substance (yeast gene YNR051C) | level of expressed mRNA in the presence of chemical substance / level in the absence of chemical substance (yeast gene YPL188W)
1.5: The level of expressed mRNA in the presence of chemical substance/The level of expressed mRNA in the absence of chemical substance (yeast gene YOL047C) | The level of expressed mRNA in the presence of chemical substance/The level of expressed mRNA in the absence of chemical substance (yeast gene YOR197W) | level of expressed mRNA in the presence of chemical substance / level in the absence of chemical substance (yeast gene YPL221W)
2.7: The level of expressed mRNA in the presence of chemical substance/The level of expressed mRNA in the absence of chemical substance (yeast gene YOL150C)
1.6: The level of expressed mRNA in the presence of chemical substance/The level of expressed mRNA in the absence of chemical substance (yeast gene YNL115C) | The level of expressed mRNA in the presence of chemical substance/The level of expressed mRNA in the absence of chemical substance (yeast gene YOL082W)
1.2: level of expressed mRNA in the presence of chemical substance / level in the absence of chemical substance (yeast gene YNL200C) | The level of expressed mRNA in the presence of chemical substance/The level of expressed mRNA in the absence of chemical substance (yeast gene YOL162W) | level of expressed mRNA in the presence of chemical substance / level in the absence of chemical substance (yeast gene YPL005W) | level of expressed mRNA in the presence of chemical substance / level in the absence of chemical substance (yeast gene YPL152W)
1.3: The level of expressed mRNA in the presence of chemical substance/The level of expressed mRNA in the absence of chemical substance (yeast gene YOL071W) | The level of expressed mRNA in the presence of chemical substance/The level of expressed mRNA in the absence of chemical substance (yeast gene YOL117W) | level of expressed mRNA in the presence of chemical substance / level in the absence of chemical substance (yeast gene YOR267C) | The level of expressed mRNA in the presence of chemical substance/The level of expressed mRNA in the absence of chemical substance (yeast gene YPR151C)
0.8: level of expressed mRNA in the presence of chemical substance / level in the absence of chemical substance (yeast gene YNL058C) | level of expressed mRNA in the presence of chemical substance / level in the absence of chemical substance (yeast gene YNL194C) | level of expressed mRNA in the presence of chemical substance / level in the absence of chemical substance (yeast gene YOR087W) | level of expressed mRNA in the presence of chemical substance / level in the absence of chemical substance (yeast gene YOR325W)
1.4: The level of expressed mRNA in the presence of chemical substance/The level of expressed mRNA in the absence of chemical substance (yeast gene YOL083W) | level of expressed mRNA in the presence of chemical substance / level in the absence of chemical substance (yeast gene YPL150W) | The level of expressed mRNA in the presence of chemical substance/The level of expressed mRNA in the absence of chemical substance (yeast gene YPL196W) | The level of expressed mRNA in the presence of chemical substance/The level of expressed mRNA in the absence of chemical substance (yeast gene YPL206C)
1.1: The level of expressed mRNA in the presence of chemical substance/The level of expressed mRNA in the absence of chemical substance (yeast gene YNL074C) | level of expressed mRNA in the presence of chemical substance / level in the absence of chemical substance (yeast gene YNL253W) | level of expressed mRNA in the presence of chemical substance / level in the absence of chemical substance (yeast gene YNL276C) | The level of expressed mRNA in the presence of chemical substance/The level of expressed mRNA in the absence of chemical substance (yeast gene YOL036W) | The level of expressed mRNA in the presence of chemical substance/The level of expressed mRNA in the absence of chemical substance (yeast gene YOL131W) | level of expressed mRNA in the presence of chemical substance / level in the absence of chemical substance (yeast gene YOR022C) | level of expressed mRNA in the presence of chemical substance / level in the absence of chemical substance (yeast gene YOR138C) | level of expressed mRNA in the presence of chemical substance / level in the absence of chemical substance (yeast gene YPL168W) | The level of expressed mRNA in the presence of chemical substance/The level of expressed mRNA in the absence of chemical substance (yeast gene YPL222W) | level of expressed mRNA in the presence of chemical substance / level in the absence of chemical substance (yeast gene YPR172W)
2.1: level of expressed mRNA in the presence of chemical substance / level in the absence of chemical substance (yeast gene YOL026C) | The level of expressed mRNA in the presence of chemical substance/The level of expressed mRNA in the absence of chemical substance (yeast gene YPL087W)
